Results reported in patent US20160046616A1, “NRF2 SMALL MOLECULE INHIBITORS FOR CANCER THERAPY” (THE JOHNS HOPKINS UNIVERSITY, priority 2013, published 2016).
Like-named read-outs stand apart in the source and are kept apart here.

Legend:
[1] = system: A549 NRF2-ARE-Fluc stable cell line; experiment: A549 Nrf2 assay: NRF2-ARE firefly luciferase reporter gene assay; assay type: cell-based; details: read-out: Potency of inhibition, A549
From the text: A549, the parental cell line, is a non-small-cell lung cancer (NSCLC) cell line with loss-of-function (LOF) Keap1 activity, thus NRF2 transcription factor constitutively translocates into the nucleus to activate the expression of downstream target genes of NRF2. A firefly luciferase reporter (Fluc) construct driven by a minimal promoter of NRF2-specific anti-oxidant responsive element (ARE) is stably expressed in the A549 cells. Compounds that reduce the translocation of NRF2 into the nucleus or prevent the interaction between NRF2 and ARE will lead to a decrease in luciferase activity.
The final concentration of DMSO was maintained at 0.46%. Control compounds Budesonide and Staurosporine were both added at a concentration of 2 mM and Budesonide also was added as a 1:10 titration, starting at 200 μM, to achieve dose-response. After an 18-24 hour incubation at 37° C., 95% humidity, and 5% CO2, 1 μL of 5× CellTiter-Fluor non-lytic cell viability assay reagent (Promega, Madison, Wis.) was added into the each well of the plates. The plates were then incubated for 30 minutes at room temperature before they were read on a ViewLux plate imager (Perkin Elmer, Waltham, Mass.) using an excitation wavelength of 405 nm and an emission wavelength of 525 nm.
A cell based reporter assay approach was used for the identification of agents that could inhibit Nrf2 mediated gene expression (FIG. 1). A549-ARE-luciferase cells express the luciferase gene driven by a minimal promoter and an enhancer element containing an NRF2 binding site (Antioxidant Response Element, ARE).
(§1) Representative compounds were assayed to assess the potency of inhibition in an A549 NRF2-ARE-Fluc stable cell line (A549 Nrf2 assay), in an H838 NRF2-ARE-Fluc stable cell line (H838 Nrf2 assay), and in an H1437 NRF2-ARE-Fluc stable cell line (H1437 Nrf2 assay) (see Table 3).

[2] = system: H1437 NRF2-ARE-Fluc stable cell line; experiment: H1437 Nrf2 assay: NRF2-ARE firefly luciferase reporter gene assay; assay type: cell-based; details: read-out: Potency of inhibition, H1437
From the text: H1437 is another NSCLC cell line with LOF Keap1 activity and constitutive translocation of NRF2 into the nucleus. A firefly luciferase reporter construct driven by a minimal promoter of NRF2-specific ARE is stably expressed in the H1437 cells. This cell line was used as a confirmation assay to make sure hits identified from primary screening and that passed counterscreen assays worked in different cell types with a constitutively active NRF2 pathway (deficiency in Keap1).
This assay was very similar to the primary assay except that the cell line was changed. […] The final concentration of DMSO was maintained at 0.46%. Control compounds Budesonide and Staurosporine were both added at a concentration of 2 mM and Budesonide was also added as a 1:10 titration, starting at 200 μM, to achieve dose-response. After an 18-24 hour incubation at 37° C., 95% humidity, and 5% CO2, 1 μL of 5× CellTiter-Fluor non-lytic cell viability assay reagent (Promega, Madison Wis.) was added into the each well of the plates. The plates were then incubated for 30 minutes at room temperature before they were read on a ViewLux plate imager (Perkin Elmer, Waltham Mass.) using an excitation wavelength of 405 nm and an emission wavelength of 525 nm.
as §1

[3] = Homo sapiens, NCI-H1437, H1437 NRF2-ARE-Fluc stable cell line

Structure (SMILES)	IC50 ([1]; Homo sapiens) [µM]	IC50 [2, 3] [µM]	IC50 [1] [µM]	IC50 ([2]; H1437 NRF2-ARE-Fluc stable cell line) [µM]
Cc1ccccc1C(=O)N1CCc2cc(-c3csc(NC(=O)Cc4ccc5c(c4)OCO5)n3)ccc21 [Compound 2]	5 to 25	5 to 25		
Cc1ccccc1C(=O)N1CCc2cc(-c3nc(NC(=O)Cc4ccc5c(c4)OCCO5)sc3C)ccc21 [Compound 5]	5 to 25	< 5		
COc1cccc(CC(=O)Nc2nc(-c3ccc4c(c3)CCN4C(=O)c3ccccc3C)c(C)s2)c1 [Compound 6]	< 5	< 5		
COc1ccc(CC(=O)Nc2nc(-c3ccc4c(c3)CCN4C(=O)c3ccccc3C)c(C)s2)cc1 [Compound 7]	< 5	< 5		
Cc1ccccc1C(=O)N1CCc2cc(-c3nc(NC(=O)Cc4ccccc4)sc3C)ccc21 [Compound 8]	< 5	< 5		
Cc1ccccc1C(=O)N1CCc2cc(-c3nc(NC(=O)Cc4ccc5ccccc5c4)sc3C)ccc21 [Compound 9]	< 5	5 to 25		
Cc1ccc(CC(=O)Nc2nc(-c3ccc4c(c3)CCN4C(=O)c3ccccc3C)c(C)s2)cc1C [Compound 10]	5 to 25	> 25		
CC(=O)Nc1nc(-c2ccc3c(c2)CCN3C(=O)c2ccccc2C)c(C)s1 [Compound 11]	5 to 25	< 5		
Cc1ccccc1C(=O)N1CCc2cc(-c3nc(NC(=O)Cc4ccc(F)c(F)c4)sc3C)ccc21 [Compound 12]	< 5	< 5		
Cc1ccccc1C(=O)N1CCc2cc(-c3nc(NC(=O)c4ccc5c(c4)OCO5)sc3C)ccc21 [Compound 13]	< 5	5 to 25		
Cc1sc(NC(=O)Cc2ccc3c(c2)OCO3)nc1-c1ccc2c(c1)CCN2C(=O)c1ccccc1 [Compound 14]			< 5	5 to 25
O=C(Nc1ncc(Cc2ccc(C(F)(F)F)cc2)s1)c1ccco1 [Compound 15]	> 25	> 25		
O=C(Nc1ncc(Cc2ccccc2)s1)c1ccc(-c2cccc([N+](=O)[O-])c2)o1 [Compound 16]	5 to 25	5 to 25		
Cc1sc(NC(=O)Cc2ccc3c(c2)OCO3)nc1-c1ccc2c(c1)CCN2 [Compound 17, 2-(Benzo[d][1,3]dioxol-5-yl)-N-(4-(indolin-5-yl)-5-methylthiazol-2-yl)acetamide]	5 to 25	> 25		
O=C(Nc1ncc(Cc2ccc(C(F)(F)F)cc2)s1)c1ccc(-c2ccccc2[N+](=O)[O-])o1 [Compound 18]	5 to 25	< 5		
O=C(Nc1ncc(Cc2ccc(C(F)(F)F)cc2)s1)c1ccc(-c2ccccc2)o1 [Compound 19]	5 to 25	> 25		
O=C(Nc1ncc(Cc2cccc(C(F)(F)F)c2)s1)c1ccc(-c2cccc([N+](=O)[O-])c2)o1 [Compound 20]	5 to 25	< 5		
CC(=O)N1CCc2cc(-c3nc(NC(=O)Cc4ccc5c(c4)OCO5)sc3C)ccc21 [Compound 21]	< 5	5 to 25		
O=C(Nc1ncc(Cc2ccc(C(F)(F)F)cc2)s1)c1ccc(-c2ccc([N+](=O)[O-])cc2)o1 [Compound 22]	5 to 25	5 to 25		
Cc1ccc(C(=O)N2CCc3cc(-c4nc(NC(=O)Cc5ccc6c(c5)OCO6)sc4C)ccc32)cc1 [Compound 23]	5 to 25	> 25		
Cc1ccccc1S(=O)(=O)N1CCc2cc(-c3nc(NC(=O)Cc4ccc5c(c4)OCO5)sc3C)ccc21 [Compound 24]	< 5	5 to 25		
Cc1sc(NC(=O)Cc2ccc3c(c2)OCO3)nc1-c1ccc2c(c1)CCN2C(=O)C1CCCCC1 [Compound 25]	5 to 25	< 5		
Cc1sc(NC(=O)Cc2ccc3c(c2)OCO3)nc1-c1ccc2c(c1)CCN2C [Compound 26]	5 to 25	> 25		

Structure (SMILES)	IC50 ([1]; Homo sapiens) [µM]	IC50 [2, 3] [µM]	IC50 [1] [µM]	IC50 ([2]; H1437 NRF2-ARE-Fluc stable cell line) [µM]
O=C(Nc1ncc(Cc2ccc(C(F)(F)F)cc2)s1)c1ccc(-c2cccnc2)o1 [Compound 27]	5 to 25	< 5		
Cc1ccccc1C(=O)N1CCc2cc(-c3cccc(NC(=O)Cc4ccc5c(c4)OCO5)n3)ccc21 [Compound 28]	5 to 25	> 25		
Cc1cccc(C(=O)N2CCc3cc(-c4nc(NC(=O)Cc5ccc6c(c5)OCO6)sc4C)ccc32)c1 [Compound 29]	> 25	5 to 25		
Cc1ccccc1C(=O)n1ccc2cc(-c3nc(NC(=O)Cc4ccc5c(c4)OCO5)sc3C)ccc21 [Compound 30]	5 to 25	5 to 25		
Cc1ccccc1C(=O)N1CCc2cc(-c3cccc(NC(=O)Cc4ccc5c(c4)OCO5)c3)ccc21 [Compound 31]	5 to 25	> 25		
CCN(CC)S(=O)(=O)c1cccc(C(=O)Nc2ccc(C#N)cc2)c1 [Compound 32]	< 5	5 to 25		
CCN(C1CCCCC1)S(=O)(=O)c1ccc(S(=O)(=O)NCc2ccncc2)cc1 [Compound 33]	5 to 25	< 5		
O=C(Nc1ccc(S(=O)(=O)N2CCN(Cc3ccccc3)CC2)cc1)c1cnccn1 [Compound 34]	< 5	5 to 25		
CC(=O)N1CCc2cc(S(=O)(=O)NCCC3=CCCCC3)ccc21 [Compound 35]	< 5	5 to 25		
CC1CCCN(C(=O)c2ccc(S(=O)(=O)N3CCC(c4nc5ccccc5s4)CC3)cc2)C1 (centres unmarked) [Compound 36]	< 5	< 5		
CCN(CC)C(=O)c1ccc(S(=O)(=O)N2CCC(c3nc4ccccc4s3)CC2)cc1 [Compound 37]	< 5	< 5		
O=C(Nc1ccc(S(=O)(=O)N2CCCCC2)cc1)c1ccc(CN2CCc3ccccc3C2)cc1 [Compound 38]	< 5	< 5		
NC(=O)c1ccc(N2CCN(S(=O)(=O)c3ccccc3)CC2)c([N+](=O)[O-])c1 [Compound 39]	< 5	5 to 25		
CCC(=O)N1c2ccc(S(=O)(=O)N3CCN(c4ccc([N+](=O)[O-])cc4)CC3)cc2CC1C (centres unmarked) [Compound 40]	< 5	< 5		
NC(=O)C1CCN(c2ccc(S(=O)(=O)N3CCC(Cc4ccccc4)CC3)cn2)CC1 [Compound 41]	< 5	5 to 25		
COc1ccc(-c2cc(C)no2)cc1S(=O)(=O)N1CCN(c2ccc([N+](=O)[O-])cc2)CC1 [Compound 42]	< 5	< 5		
Cc1csc2ncnc(N3CCN(S(=O)(=O)c4cccc(C(F)(F)F)c4)CC3)c12 [Compound 43]	5 to 25	< 5		
Cc1ccccc1CCNC(=O)c1ccc(Cl)c(S(=O)(=O)N2CC(C)OC(C)C2)c1 (centres unmarked) [Compound 44]	5 to 25	5 to 25		
Cc1ccc(NC(=O)COc2ccccc2C(N)=O)cc1S(=O)(=O)N1CCCCCC1 [Compound 45]	< 5	< 5		
Cc1ccc(NC(=O)c2ccc(S(=O)(=O)N(C)c3ccccc3)cc2)cc1S(=O)(=O)N1CCOCC1 [Compound 46]	< 5	5 to 25		
O=C(Nc1cccc(Cc2ccccc2)c1)c1ccc(-c2cccc([N+](=O)[O-])c2)o1 [Compound 56]	5 to 25	5 to 25		
O=C(Cc1ccccc1)Nc1cccc(-c2ccc3[nH]cnc3c2)n1 [Compound 57, N-(6-(1H-benzo[d]imidazol-5-yl)pyridin-2-yl)-2-phenylacetamide]	> 25	> 25		
O=C(Nc1ncc(Cc2ccc(C(F)(F)F)cc2)s1)c1ccnc(-c2ccccc2)c1 [Compound 58]	> 25	5 to 25		
